The source of these data is article PMC10192418, “High-affinity peptides developed against calprotectin and their application as synthetic ligands in diagnostic assays” (Nature Communications, 2023).

Like-named read-outs stand apart in the source and are kept apart here. Numbered stars: 1 amine (or outer) side, 2 acyl side, 3 side chain; on linkers, the order of the positions; unused ones are H or OH. Bridge positions count the residues as written; N and C are the ends. Peptide text beside a SMILES is read from it. * marks the point of attachment. 5FAM = O=C1OC2(c3ccc(O)cc3Oc3cc(O)ccc32)c2ccc(C(=O)*)cc21; Pyridine(2,6-diCH2) = c1cc(C[*:1])nc(C[*:2])c1

The assay deals with T1, calprotectin tetramer (recombinant B-RCAL, His6-linker-S100A9-linker-S100A8) (Homo sapiens, UniProt P05109).
T1 construct: we used the recombinant protein without removing the His-tag or cleaving the 8-amino acid linker between the two proteins; co-authors' company
T1 sequence (P05109 with tags, fused parts or gaps): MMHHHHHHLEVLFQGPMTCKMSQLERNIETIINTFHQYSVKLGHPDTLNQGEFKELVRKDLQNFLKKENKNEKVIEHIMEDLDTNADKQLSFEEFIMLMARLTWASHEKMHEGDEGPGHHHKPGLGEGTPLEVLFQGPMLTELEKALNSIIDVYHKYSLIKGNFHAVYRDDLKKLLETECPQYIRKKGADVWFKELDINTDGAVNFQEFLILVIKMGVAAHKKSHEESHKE
As to the kind of experiment: Fluorescence polarization (FP) binding to recombinant calprotectin B-RCAL tetramer in presence of CaCl2. On the procedure: Calprotectin was serially diluted in 20 mM HEPES, 100 mM NaCl, 2 mM CaCl2, pH 7.5, and 1 mM DTT with 0.01% (v/v) Tween-20. Volumes of 16 μL of protein were added to 4 μL of fluorescent peptide (20 nM final concentration) in black 384-well microtiter plates. Fluorescence anisotropy was measured on a microwell plate reader (Infinite M200Pro, Tecan) with filters for excitation at 485 nm and emission at 535 nm. The dissociation constant (Kd) was calculated using a following Eq. (1) using Prism 5 software (GraphPad):1 A=Af+Ab−Af×LT+KD+PT−LT+KD+PT^2−4LTPT/2LT where A is anisotropy, Af and Ab are the anisotropy values for free and bound ligands, respectively. [L]T is the concentration of the total fluorescent ligand and [P]T the concentration of the protein.

Setting [1] is: FP, alanine scan of linear peptide 3, 20 nM peptide, 2 mM CaCl2, one measurement, NB = non-binding.

For `CSCC[C@H](NC(=O)[C@@H]1CCCN1C(=O)[C@H](Cc1ccccc1)NC(=O)[C@H](C)NC(=O)[C@@H](NC(=O)[C@@H]1CSCC(=O)CSC[C@H](NC(=O)[C@H](CCCNC(=N)N)NC(=O)c2ccc3c(c2)C(=O)OC32c3ccc(O)cc3Oc3cc(O)ccc32)C(=O)N2CCC[C@H]2C(=O)N[C@@H](CCC(=O)O)C(=O)N1)C(C)C)C(=O)N[C@@H](Cc1ccccc1)C(=O)N[C@@H](CCC(N)=O)C(=O)N[C@@H](CO)C(=O)N[C@@H](Cc1c[nH]cn1)C(=O)N[C@@H](Cc1c[nH]c2ccccc12)C(=O)N[C@@H](Cc1ccc(O)cc1)C(=O)N[C@@H](CO)C(=O)NCC(N)=O` (single isomer, unassigned) [Peptide 3 Isomer 1a], the dissociation constant (Kd) stood at 16.9 nM.

Consider `CSCC[C@H](NC(=O)[C@@H]1CCCN1C(=O)[C@H](Cc1ccccc1)NC(=O)[C@H](C)NC(=O)[C@@H](NC(=O)[C@H](CO)NC(=O)[C@H](CCC(=O)O)NC(=O)[C@@H]1CCCN1C(=O)[C@H](CO)NC(=O)[C@H](CCCNC(=N)N)NC(=O)c1ccc2c(c1)C(=O)OC21c2ccc(O)cc2Oc2cc(O)ccc21)C(C)C)C(=O)N[C@@H](Cc1ccccc1)C(=O)N[C@@H](CCC(N)=O)C(=O)N[C@H]1CSCC(=O)CSC[C@@H](C(=O)NCC(N)=O)NC(=O)[C@H](Cc2ccc(O)cc2)NC(=O)[C@H](Cc2c[nH]c3ccccc23)NC(=O)[C@H](Cc2c[nH]cn2)NC1=O` (single isomer, unassigned) [Peptide 3 Isomer 1b], for which the Kd turned out to be 17.9 nM. `CSCC[C@@H]1NC(=O)[C@@H]2CCCN2C(=O)[C@H](Cc2ccccc2)NC(=O)[C@H](C)NC(=O)[C@H](C(C)C)NC(=O)[C@@H]2CSCC(=O)CSC[C@@H](C(=O)NCC(N)=O)NC(=O)[C@H](Cc3ccc(O)cc3)NC(=O)[C@H](Cc3c[nH]c4ccccc34)NC(=O)[C@H](Cc3c[nH]cn3)NC(=O)[C@H](CSCC(=O)CSC[C@H](NC(=O)[C@H](CCCNC(=N)N)NC(=O)c3ccc4c(c3)C(=O)OC43c4ccc(O)cc4Oc4cc(O)ccc43)C(=O)N3CCC[C@H]3C(=O)N[C@@H](CCC(=O)O)C(=O)N2)NC(=O)[C@H](CCC(N)=O)NC(=O)[C@H](Cc2ccccc2)NC1=O` (single isomer, unassigned) [Peptide 3 Isomer 2]: the “FP increase upon binding to calprotectin” value (FP, 2 mM CaCl2) is given as 10–15%. `CSCC[C@@H]1NC(=O)[C@@H]2CCCN2C(=O)[C@H](Cc2ccccc2)NC(=O)[C@H](C)NC(=O)[C@H](C(C)C)NC(=O)[C@@H]2CSCC(=O)CSC[C@H](NC(=O)[C@H](CCC(N)=O)NC(=O)[C@H](Cc3ccccc3)NC1=O)C(=O)N[C@@H](Cc1c[nH]cn1)C(=O)N[C@@H](Cc1c[nH]c3ccccc13)C(=O)N[C@@H](Cc1ccc(O)cc1)C(=O)N[C@H](C(=O)NCC(N)=O)CSCC(=O)CSC[C@H](NC(=O)[C@H](CCCNC(=N)N)NC(=O)c1ccc3c(c1)C(=O)OC31c3ccc(O)cc3Oc3cc(O)ccc31)C(=O)N1CCC[C@H]1C(=O)N[C@@H](CCC(=O)O)C(=O)N2` (single isomer, unassigned) [Peptide 3 Isomer 3]: the “FP increase upon binding to calprotectin” value (FP, 2 mM CaCl2) is 10–15%.

In the case of `CC(C)C[C@H](NC(=O)[C@@H]1CCCN1C(=O)[C@H](Cc1ccccc1)NC(=O)[C@H](C)NC(=O)[C@@H](NC(=O)[C@H](CO)NC(=O)[C@H](CCC(=O)O)NC(=O)[C@@H]1CCCN1C(=O)[C@H](CO)NC(=O)[C@H](CCCNC(=N)N)NC(=O)c1ccc2c(c1)C(=O)OC21c2ccc(O)cc2Oc2cc(O)ccc21)C(C)C)C(=O)N[C@@H](Cc1ccccc1)C(=O)N[C@@H](CCC(N)=O)C(=O)N[C@@H](CO)C(=O)N[C@@H](Cc1c[nH]cn1)C(=O)N[C@@H](Cc1c[nH]c2ccccc12)C(=O)N[C@@H](Cc1ccc(O)cc1)C(=O)N[C@@H](CO)C(=O)NCC(N)=O` [Met10Leu mutant] (5FAM-RSPESVAFPLFQSHWYSG-NH2), the Kd (FP, linear peptide 3 with Met10 mutated to leucine, 20 nM peptide, 2 mM CaCl2) stood at 30.6 ± 4.6 nM.

Take `CC[C@H](C)[C@@H]1NC(=O)[C@H](CO)NC(=O)[C@H](Cc2c[nH]c3ccccc23)NC(=O)[C@H](CCCNC(=N)N)NC(=O)[C@@H](NC(=O)[C@H](Cc2ccccc2)NC(=O)[C@@H]2CCCN2C(=O)c2ccc3c(c2)C(=O)OC32c3ccc(O)cc3Oc3cc(O)ccc32)CSCc2cccc(n2)CSC[C@@H](C(=O)N[C@@H](Cc2c[nH]cn2)C(N)=O)NC(=O)[C@H](CC(N)=O)NC(=O)[C@H](CC(=O)O)NC1=O` [Peptide 9] (5FAM-PFCRWSIDNCH-NH2; linker 3-10 via Pyridine(2,6-diCH2)): the Kd (from fluorescence anisotropy titration, SI Figure 3) turned out to be 29000 nM. On to `CSCC[C@H](NC(=O)[C@@H]1CCCN1C(=O)[C@H](Cc1ccccc1)NC(=O)CNC(=O)[C@@H](NC(=O)[C@H](CO)NC(=O)[C@H](CCC(=O)O)NC(=O)[C@@H]1CCCN1C(=O)[C@H](CO)NC(=O)[C@H](CCCNC(=N)N)NC(=O)c1ccc2c(c1)C(=O)OC21c2ccc(O)cc2Oc2cc(O)ccc21)C(C)C)C(=O)N[C@@H](Cc1ccccc1)C(=O)N[C@@H](CCC(N)=O)C(=O)N[C@@H](CO)C(=O)N[C@@H](Cc1c[nH]cn1)C(=O)N[C@@H](Cc1c[nH]c2ccccc12)C(=O)N[C@@H](Cc1ccc(O)cc1)C(=O)N[C@@H](CO)C(=O)NCC(N)=O` [Peptide A7G] (5FAM-RSPESVGFPMFQSHWYSG-NH2), for which the Kd under setting [1] is 29 nM. As to `CSCC[C@H](NC(=O)[C@@H]1CCCN1C(=O)[C@H](Cc1ccccc1)NC(=O)[C@H](C)NC(=O)[C@@H](NC(=O)[C@H](CO)NC(=O)[C@H](C)NC(=O)[C@@H]1CCCN1C(=O)[C@H](CO)NC(=O)[C@H](CCCNC(=N)N)NC(=O)c1ccc2c(c1)C(=O)OC21c2ccc(O)cc2Oc2cc(O)ccc21)C(C)C)C(=O)N[C@@H](Cc1ccccc1)C(=O)N[C@@H](CCC(N)=O)C(=O)N[C@@H](CO)C(=O)N[C@@H](Cc1c[nH]cn1)C(=O)N[C@@H](Cc1c[nH]c2ccccc12)C(=O)N[C@@H](Cc1ccc(O)cc1)C(=O)N[C@@H](CO)C(=O)NCC(N)=O` [Peptide E4A] (5FAM-RSPASVAFPMFQSHWYSG-NH2), the Kd under setting [1] was 26 nM. On the same count and under the same terms, with `CSCC[C@H](NC(=O)[C@@H]1CCCN1C(=O)[C@H](Cc1ccccc1)NC(=O)[C@H](C)NC(=O)[C@@H](NC(=O)[C@H](CO)NC(=O)[C@H](CCC(=O)O)NC(=O)[C@@H]1CCCN1C(=O)[C@H](CO)NC(=O)[C@H](CCCNC(=N)N)NC(=O)c1ccc2c(c1)C(=O)OC21c2ccc(O)cc2Oc2cc(O)ccc21)C(C)C)C(=O)N[C@@H](Cc1ccccc1)C(=O)N[C@@H](CCC(N)=O)C(=O)N[C@@H](CO)C(=O)N[C@@H](Cc1c[nH]cn1)C(=O)N[C@@H](Cc1c[nH]c2ccccc12)C(=O)N[C@@H](Cc1ccc(O)cc1)C(=O)N[C@@H](CO)C(=O)N[C@@H](C)C(N)=O` [Peptide G18A] (5FAM-RSPESVAFPMFQSHWYSA-NH2) the figure was 31 nM; with `CSCC[C@H](NC(=O)[C@@H]1CCCN1C(=O)[C@H](Cc1ccccc1)NC(=O)[C@H](C)NC(=O)[C@@H](NC(=O)[C@H](CO)NC(=O)[C@H](CCC(=O)O)NC(=O)[C@H](C)NC(=O)[C@H](CO)NC(=O)[C@H](CCCNC(=N)N)NC(=O)c1ccc2c(c1)C(=O)OC21c2ccc(O)cc2Oc2cc(O)ccc21)C(C)C)C(=O)N[C@@H](Cc1ccccc1)C(=O)N[C@@H](CCC(N)=O)C(=O)N[C@@H](CO)C(=O)N[C@@H](Cc1c[nH]cn1)C(=O)N[C@@H](Cc1c[nH]c2ccccc12)C(=O)N[C@@H](Cc1ccc(O)cc1)C(=O)N[C@@H](CO)C(=O)NCC(N)=O` [Peptide P3A] (5FAM-RSAESVAFPMFQSHWYSG-NH2), 28 nM; with `CSCC[C@H](NC(=O)[C@H](C)NC(=O)[C@H](Cc1ccccc1)NC(=O)[C@H](C)NC(=O)[C@@H](NC(=O)[C@H](CO)NC(=O)[C@H](CCC(=O)O)NC(=O)[C@@H]1CCCN1C(=O)[C@H](CO)NC(=O)[C@H](CCCNC(=N)N)NC(=O)c1ccc2c(c1)C(=O)OC21c2ccc(O)cc2Oc2cc(O)ccc21)C(C)C)C(=O)N[C@@H](Cc1ccccc1)C(=O)N[C@@H](CCC(N)=O)C(=O)N[C@@H](CO)C(=O)N[C@@H](Cc1c[nH]cn1)C(=O)N[C@@H](Cc1c[nH]c2ccccc12)C(=O)N[C@@H](Cc1ccc(O)cc1)C(=O)N[C@@H](CO)C(=O)NCC(N)=O` [Peptide P9A] (5FAM-RSPESVAFAMFQSHWYSG-NH2), 30 nM. The same measure, in the same setting: the figure for `CSCC[C@H](NC(=O)[C@@H]1CCCN1C(=O)[C@H](Cc1ccccc1)NC(=O)[C@H](C)NC(=O)[C@@H](NC(=O)[C@H](CO)NC(=O)[C@H](CCC(=O)O)NC(=O)[C@@H]1CCCN1C(=O)[C@H](CO)NC(=O)[C@H](CCCNC(=N)N)NC(=O)c1ccc2c(c1)C(=O)OC21c2ccc(O)cc2Oc2cc(O)ccc21)C(C)C)C(=O)N[C@@H](Cc1ccccc1)C(=O)N[C@@H](C)C(=O)N[C@@H](CO)C(=O)N[C@@H](Cc1c[nH]cn1)C(=O)N[C@@H](Cc1c[nH]c2ccccc12)C(=O)N[C@@H](Cc1ccc(O)cc1)C(=O)N[C@@H](CO)C(=O)NCC(N)=O` [Peptide Q12A] (5FAM-RSPESVAFPMFASHWYSG-NH2) is 27 nM. On the same count and under the same terms, with `CSCC[C@H](NC(=O)[C@@H]1CCCN1C(=O)[C@H](Cc1ccccc1)NC(=O)[C@H](C)NC(=O)[C@@H](NC(=O)[C@H](CO)NC(=O)[C@H](CCC(=O)O)NC(=O)[C@@H]1CCCN1C(=O)[C@H](CO)NC(=O)[C@H](C)NC(=O)c1ccc2c(c1)C(=O)OC21c2ccc(O)cc2Oc2cc(O)ccc21)C(C)C)C(=O)N[C@@H](Cc1ccccc1)C(=O)N[C@@H](CCC(N)=O)C(=O)N[C@@H](CO)C(=O)N[C@@H](Cc1c[nH]cn1)C(=O)N[C@@H](Cc1c[nH]c2ccccc12)C(=O)N[C@@H](Cc1ccc(O)cc1)C(=O)N[C@@H](CO)C(=O)NCC(N)=O` [Peptide R1A] (5FAM-ASPESVAFPMFQSHWYSG-NH2) the figure was 32 nM.
